{"source": "patent US20250306007A1", "about": "“DETECTING APOPTOTIC BODIES BY IMPEDANCE CYTOMETRY AS AN INDICATOR OF DRUG SENSITIVITY” (University of Virginia Patent Foundation, priority 2022, published 2025)", "key": {"[1]": {"test_system": "cancer cells lifted from the culture (gemcitabine-treated pancreatic tumor cultures)", "test": "impedance cytometry of cancer cell samples exposed to chemotherapeutic drug", "type": "cell-based", "conditions": "about 48 hours, FIG. 2A/2B", "description": "Individual cells from the biological sample or culture 102 can flow (e.g., propelled via a focusing flow channel of the impedance cytometry device 104) through the main channel 114 of the test cell 106 at a specified throughput (e.g., within a range of about 200 cells/s to about 500 cells/s) past electrodes or microelectrodes under an AC electric field applied over a specified range of frequencies (e.g., within a range between about 0.5 megahertz (MHz) to 50 MHz). In an example, an impedance of respective detected specimen can be measured by the measurement circuitry 108 concurrently or simultaneously using a plurality of discrete frequencies, e.g., a reference frequency within a range of about 15 MHz and about 20 MHz, and one or more analysis frequencies within a specified analysis frequency range. […] The electrophysiology of the cancer cells lifted from the culture after various gemcitabine treatment conditions can be measured by impedance cytometry to determine impedance magnitude (|Z|) and impedance phase (ϕZ) at a low (0.5 MHz) and a high frequency (18 MHz) for analyzing individual cellular 204 and/or sub-cellular 202 events. […] At a specified threshold frequency (e.g., at about 18 MHz), the impedance signal can be effectively determined by the dielectric properties of the cell interior, rather than properties the cell exterior. […]"}, "[2]": {"test_system": "highly tumorigenic cells derived from the xenograft 122 (patient-derived tumor cells)", "test": "cell proliferation assays comparing phenotypes over drug concentration ranges", "type": "cell-based", "description": "FIG. 1B is a schematic example of a progression of drug resistance onset of in vitro cancer cells. In an example, a tumor tissue sample 120 can be collected from a cancer patient 118 such as via surgical resection or biopsy. Cells from the tumor tissue sample 120 can be propagated, e.g., within immunocompromised mice as a xenograft 122. […] Once propagated, the line established from the xenograft 122 can be maintained in culture for treatment from a chemotherapeutic drug 124, such as gemcitabine, a fluorouracil, doxorubicin, or any other drug used in the treatment of cancer. In an example involving gemcitabine treatment on highly tumorigenic cells derived from the xenograft 122, the range of gemcitabine levels that lead to drug sensitivity can be assessed by cell proliferation assays 126. Depending on the drug treatment, the in vitro cancer cells can be drug resistant, e.g., with varying degrees of resistance to one or more drugs. The CAFs can also be further propagated in vitro and subjected to additional drug treatment(s) to further examine the drug resistance of the cancer cells. […] These structures can be associated with apoptosis-induced cell disassembly, which generates ABs of particular composition and structure. These phenotypes can be used as a model to help identify and stratify ABs in subsequent patient-derived tumor cells using impedance cytometry techniques based on comparison of their single-particle sensitivity levels."}}}
{"smiles": "Nc1ccn([C@@H]2O[C@H](CO)[C@@H](O)C2(F)F)c(=O)n1", "note": "[chemotherapeutic drug 124, gemcitabine]", "values": [{"measurement": "sub-cellular events (release of ABs)", "setting": "[1]; increasing drug concentration 0.01, 0.1, 1 μg mL^−1 vs untreated", "result": "rise in sub-cellular events 202"}, {"measurement": "impedance phase at 18 MHz (ϕZ18 MHz), cellular and sub-cellular populations", "setting": "[1]; increasing drug concentration", "result": "downward shift in ϕZ18 MHz"}, {"measurement": "phenotype (apoptosis-induced cell disassembly structures)", "setting": "[2]; at about 0.01 μg mL^−1", "result": "generation of blebs of varying size on the plasma membrane"}, {"measurement": "phenotype (apoptosis-induced cell disassembly structures)", "setting": "[2]; at about 0.1 μg mL^−1", "result": "presence of large protrusions"}, {"measurement": "phenotype (apoptosis-induced cell disassembly structures)", "setting": "[2]; at about 1 μg mL^−1", "result": "emergence of beaded structures"}]}
